In PubChem BioAssay AID1963851 (Molecular Pharmacology Branch, DTP, NCI, 2024):
Where “and” joins values, the source holds several entries; their conditions need not be identical. Equal entries are not always repeated.

Test system: 188146-221-R-J1-PDC complex spheroid viability
Experiment: Anticancer human tumor 188146-221-R-J1-PDC patient-derived colon adenocarcinoma cell line growth inhibition [POLQ]
Conditions: for viability, T/C: stronger effect = lower value
Experimental: Multicellular complex tumor spheroid response to Polymerase (POL) inhibitors (novobiocin, ART-558, RP6685) in combination with a variety of drugs and investigational agents in selected tumor cell lines
The POL inhibitors (novobiocin, ART-558, and RP6685) were evaluated both individually and in combination with standard of care and investigational anticancer small molecules within a complex spheroid model of solid tumors. . Complex spheroids include a stromal component modeled by human endothelial cells (HUVEC) and fibroblasts modeled by human mesenchymal stem cells (MSCs). The concentration ranges selected for each drug and investigational agent were based upon clinically achievable concentrations if the clinical Cmax of the agent was known.
Compounds. The drugs and investigational agents: novobiocin (NSC847541), ART-558 (NSC835418), RP-6685 (NSC848927), peposertib (NSC802822), ceralasertib (NSC780249), elimusertib (NSC800525), camonsertib (NSC841442), AZD-1390 (NSC803789), olaparib (NSC753686), talazoparib (NSC767125), rucaparib (NSC756644), sotorasib (NSC818433), MRTX-1133 (NSC836407), SN-38 (NSC673596), topotecan (NSC609699), epotoside (NSC141540), doxorubicin (NSC123127), gemcitabine (NSC613327), 5-fluorouracil (NSC19893), paclitaxel (NSC125973), vemurafenib (NSC761431), MSA-2 (NSC828583), SN-011 (NSC837082), adavosertib (NSC754352), prexasertib (NSC758257), carboplatin (NSC241240) and oxaliplatin (NSC266046), were obtained from the National Cancer Institute (NCI) Developmental Therapeutics Program Chemical Repository (21). The FDA-approved anticancer drug set is available from the Developmental Therapeutics Program at https://dtp.cancer.gov/organization/dscb/obtaining/. […] The stock solutions were prepared in dimethyl sulfoxide (DMSO, Sigma-Aldrich, St. Louis, MO, cat. D2650), except for the platinum compounds which were prepared in saline (Quality Biological, Gaithersburg, MD, cat. 114-055-101), at 800-fold the tested concentration and stored at -70 degrees C prior to their use. All drugs and investigational agents were tested over a range starting from a high concentration at or near the clinical Cmax and decreasing in half-log increments. If the clinical Cmax for an agent had not been determined, the highest concentration tested was 10 microM, except for SN-38, which was tested at a high concentration of 1 microM.
Cell Culture. All cells were maintained in an incubator at 37 degrees C and 5% CO2 with 95% humidity. The PDC lines were cultured according to standard operating procedures established by the NCI PDMR (https://pdmr.cancer.gov). Table 3 of the manuscript, lists the cell lines along with the number of the three cell types plated to form the mct-spheroids and media for tumor cell growth. After thawing, all PDC lines, except 997537-175-T-J1-PDC and 415267-285-R-J2-PDC, were cultured in Matrigel-coated flasks prepared with a working solution of 1X Ham's F-12 nutrient mix, without supplementation (Thermo Fisher Scientific, cat. 11765054), 100 U/mL penicillin-streptomycin (Thermo Fisher Scientific, cat. 15140122), and 2.5% Matrigel (Corning Inc., Corning, NY, cat. 354248) for the first three passages. The two PDC lines 997537-175-T-J1-PDC and 415267-285-R-J2-PDC were cultured on uncoated flasks. The 857933-349-R-J2-PDC line was cultured in 6C/Colon 1B media containing advanced DMEM/F-12 (Thermo Fisher Scientific, cat. 12634028), 10 mM HEPES (Thermo Fisher Scientific, cat. 15630080), 1X GlutaMAX supplement (Thermo Fisher Scientific, cat. 35050061), 0.1 mg/mL primocin (InvivoGen, San Diego, CA, cat. ant-pm-2), 10% defined fetal bovine serum, heat inactivated (HyClone Laboratories Inc., Logan, UT, cat. SH30070.03HI), 50% L-WRN conditioned media (ATCC, cat. CRL-3276), 1.25 mM N-Acetyl-L-cysteine (Sigma-Aldrich, cat. A9165), 10 mM nicotinamide (Sigma-Aldrich, cat. N0636), 1X B-27 supplement (Thermo Fisher Scientific, cat. 17504044), 1X N-2 supplement (Thermo Fisher Scientific, cat. […]

[1] = curve of first compound, second compound 0.0316 µM
[2] = curve of first compound, second compound 0.1 µM
[3] = curve of first compound, second compound 0.316 µM
[4] = curve of first compound, second compound 1 µM
[5] = curve of first compound, second compound 3.16 µM
[6] = curve of first compound, second compound 10 µM
[7] = second compound 0.0316 µM, first compound 0.0316 µM
[8] = second compound 0.0316 µM, first compound 0.1 µM
[9] = second compound 0.0316 µM, first compound 0.316 µM
[10] = second compound 0.0316 µM, first compound 1 µM
[11] = second compound 0.1 µM, first compound 0.0316 µM
[12] = second compound 0.1 µM, first compound 0.1 µM
[13] = second compound 0.1 µM, first compound 0.316 µM
[14] = second compound 0.1 µM, first compound 1 µM
[15] = second compound 0.316 µM, first compound 0.0316 µM
[16] = second compound 0.316 µM, first compound 0.1 µM
[17] = second compound 0.316 µM, first compound 0.316 µM
[18] = second compound 0.316 µM, first compound 1 µM
[19] = second compound 1 µM, first compound 0.0316 µM
[20] = second compound 1 µM, first compound 0.1 µM
[21] = second compound 1 µM, first compound 0.316 µM
[22] = second compound 1 µM, first compound 1 µM
[23] = second compound 3.16 µM, first compound 0.0316 µM
[24] = second compound 3.16 µM, first compound 0.1 µM
[25] = second compound 3.16 µM, first compound 0.316 µM
[26] = second compound 3.16 µM, first compound 1 µM
[27] = second compound 10 µM, first compound 0.0316 µM
[28] = second compound 10 µM, first compound 0.1 µM
[29] = second compound 10 µM, first compound 0.316 µM
[30] = second compound 10 µM, first compound 1 µM
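Note: spheroids exposed to compounds for seven days.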
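Throughout, for viability, T/C: 100% = DMSO vehicle control viability.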

## C=CCn1c(=O)c2cnc(Nc3ccc(N4CCN(C)CC4)cc3)nc2n1-c1cccc(C(C)(C)O)n1
Compound 0.00316 µM
  viability, T/C: 96.3% and 101% and 120%
Compound 0.01 µM
  viability, T/C: 104% and 117% and 103%
Compound 0.0316 µM
  viability, T/C: 94.6% and 104% and 95.5%
Compound 0.1 µM
  viability, T/C: 98.4% and 100% and 113%
Compound 0.316 µM
  viability, T/C: 99% and 117% and 98.4%
Compound 1 µM
  viability, T/C: 60.4% and 62.4% and 59%
Curve of compound
  IC50: > 1000 nM

## COc1cccc2c1C(=O)c1c(O)c3c(c(O)c1C2=O)CC(O)(C(=O)CO)CC3OC1CC(N)C(O)C(C)O1 (stereo not drawn) + COC1C(OC(N)=O)C(O)C(Oc2ccc3c(O)c(NC(=O)c4ccc(O)c(CC=C(C)C)c4)c(=O)oc3c2C)OC1(C)C
[1]
  IC50: 154 nM
[2]
  IC50: 143 nM
[3]
  IC50: 162 nM
[4]
  IC50: 145 nM
[5]
  IC50: 106 nM
[6]
  IC50: 151 nM
[7]
  viability, T/C: 90.2%
[8]
  viability, T/C: 59.5%
[9]
  viability, T/C: 33.8%
[10]
  viability, T/C: 13.1%
Second compound 0.0316 µM, first compound 3.16 µM
  viability, T/C: 0.29%
Second compound 0.0316 µM, first compound 10 µM
  viability, T/C: 0.43%
[11]
  viability, T/C: 91.8%
[12]
  viability, T/C: 57.5%
[13]
  viability, T/C: 32.5%
[14]
  viability, T/C: 11.4%
Second compound 0.1 µM, first compound 3.16 µM
  viability, T/C: 0.37%
Second compound 0.1 µM, first compound 10 µM
  viability, T/C: 0.4%
[15]
  viability, T/C: 92.7%
[16]
  viability, T/C: 61.1%
[17]
  viability, T/C: 34%
[18]
  viability, T/C: 16.4%
Second compound 0.316 µM, first compound 3.16 µM
  viability, T/C: 0.2%
Second compound 0.316 µM, first compound 10 µM
  viability, T/C: 0.41%
[19]
  viability, T/C: 94.9%
[20]
  viability, T/C: 54%
[21]
  viability, T/C: 40.1%
[22]
  viability, T/C: 9.16%
Second compound 1 µM, first compound 3.16 µM
  viability, T/C: 0.41%
Second compound 1 µM, first compound 10 µM
  viability, T/C: 0.44%
[23]
  viability, T/C: 85.3%
[24]
  viability, T/C: 47.1%
[25]
  viability, T/C: 35.4%
[26]
  viability, T/C: 8.24%
Second compound 3.16 µM, first compound 3.16 µM
  viability, T/C: 0.22%
Second compound 3.16 µM, first compound 10 µM
  viability, T/C: 0.55%
[27]
  viability, T/C: 77.9%
[28]
  viability, T/C: 56.6%
[29]
  viability, T/C: 36.5%
[30]
  viability, T/C: 9.76%
Second compound 10 µM, first compound 3.16 µM
  viability, T/C: 0.33%
Second compound 10 µM, first compound 10 µM
  viability, T/C: 0.51%

## COc1ccc([C@@H](O)c2cc(-c3ncnc4cc(N5CCOCC5)ccc34)c(F)cc2Cl)nn1
Compound 0.0316 µM
  viability, T/C: 102% and 91.7% and 100%
Compound 0.1 µM
  viability, T/C: 101% and 92.3% and 96.1%
Compound 0.316 µM
  viability, T/C: 90.7% and 97.8% and 96.1%
Compound 1 µM
  viability, T/C: 90.2% and 101% and 91.3%
Compound 3.16 µM
  viability, T/C: 68.4% and 78.3% and 67.7%
Compound 10 µM
  viability, T/C: 32.3% and 39.1% and 29.9%
Curve of compound
  IC50: 5750 nM and 7260 nM and 5430 nM

## C=CCn1c(=O)c2cnc(Nc3ccc(N4CCN(C)CC4)cc3)nc2n1-c1cccc(C(C)(C)O)n1 + COC1C(OC(N)=O)C(O)C(Oc2ccc3c(O)c(NC(=O)c4ccc(O)c(CC=C(C)C)c4)c(=O)oc3c2C)OC1(C)C
[1]
  IC50: > 1000 nM
[2]
  IC50: 933 nM
[3]
  IC50: > 1000 nM
[4]
  IC50: > 1000 nM
[5]
  IC50: > 1000 nM
[6]
  IC50: 908 nM
Second compound 0.0316 µM, first compound 0.00316 µM
  viability, T/C: 106%
Second compound 0.0316 µM, first compound 0.01 µM
  viability, T/C: 99.2%
[7]
  viability, T/C: 103%
[8]
  viability, T/C: 101%
[9]
  viability, T/C: 98%
[10]
  viability, T/C: 51.5%
Second compound 0.1 µM, first compound 0.00316 µM
  viability, T/C: 111%
Second compound 0.1 µM, first compound 0.01 µM
  viability, T/C: 106%
[11]
  viability, T/C: 101%
[12]
  viability, T/C: 98%
[13]
  viability, T/C: 91.5%
[14]
  viability, T/C: 46.8%
Second compound 0.316 µM, first compound 0.00316 µM
  viability, T/C: 85.1%
Second compound 0.316 µM, first compound 0.01 µM
  viability, T/C: 106%
[15]
  viability, T/C: 96.5%
[16]
  viability, T/C: 101%
[17]
  viability, T/C: 97.6%
[18]
  viability, T/C: 56.3%
Second compound 1 µM, first compound 0.00316 µM
  viability, T/C: 108%
Second compound 1 µM, first compound 0.01 µM
  viability, T/C: 100%
[19]
  viability, T/C: 102%
[20]
  viability, T/C: 95.9%
[21]
  viability, T/C: 87.7%
[22]
  viability, T/C: 55.2%
Second compound 3.16 µM, first compound 0.00316 µM
  viability, T/C: 102%
Second compound 3.16 µM, first compound 0.01 µM
  viability, T/C: 98.9%
[23]
  viability, T/C: 108%
[24]
  viability, T/C: 98.4%
[25]
  viability, T/C: 98%
[26]
  viability, T/C: 56.3%
Second compound 10 µM, first compound 0.00316 µM
  viability, T/C: 109%
Second compound 10 µM, first compound 0.01 µM
  viability, T/C: 96.9%
[27]
  viability, T/C: 100%
[28]
  viability, T/C: 100%
[29]
  viability, T/C: 98.1%
[30]
  viability, T/C: 45.6%
